# From patent publication US10472358B2, “1H-pyrrolo[2,3-c]pyridin-7(6H)-ones and pyrazolo[3,4-c]pyridin-7(6H)-ones as inhibitors of BET proteins” (Incyte Corporation, priority 2014, dated 2019)
# Tested on: KMS.12.BM cells
# Assay: KMS.12.BM cell viability assay (Cell Titer-GLO, ATP quantitation)
# Assay type: cell-based
# Settings: KMS-12-BM, 72 h; human myeloma cells, 3 days, concentration required for 50% cell death
# Method in brief: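 KMS.12.BM human myeloma cells (5000/well, RPMI with 10% FBS) were exposed to a compound concentration range for 3 days. Viable cells were measured by CellTiter-Glo ATP luminescence. IC50 is the concentration giving 50% cell death relative to untreated cells.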
smiles,measurement,value
"CC(C)C1Oc2c(cc(S(C)(=O)=O)cc2-c2cn(C)c(=O)c3[nH]ncc23)NC1=O (stereo not shown) [Example 84, 2-isopropyl-8-(6-methyl-7-oxo-6,7-dihydro-1H-pyrazolo[3,4-c]pyridin-4-yl)-6-(methylsulfonyl)-2H-1,4-benzoxazin-3(4H)-one]",IC50,≤ 1000 nM
